Test results as given in PubChem BioAssay (NCI).
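Test compounds were applied to cells in 96-well plates for 48 hours at 5 doses. GI50 is the concentration that inhibits growth by half. The concentration for full growth arrest is given as TGI.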

Experiments:
Test in all cases: NCI tumour cell line growth inhibition, 48 h
[1] = system: A549 NSCLC
[2] = system: HCT-116 colon
[3] = system: NCI-H226 lung
[4] = system: HCT-15 colon
[5] = system: MOLT-4 leukemia
[6] = system: OVCAR-8 ovarian
[7] = system: HCC-2998 colon
[8] = system: SW-620 colon
[9] = system: SN12C renal
[10] = system: RPMI-8226 leukemia
[11] = system: K-562 leukemia
[12] = system: OVCAR-5 ovarian
[13] = system: RXF 393 renal
[14] = system: 786-0 renal
[15] = system: SF-539 CNS

Row | SMILES | TGI [1] | TGI [2] | TGI [3] | TGI [4] | TGI [5] | TGI [6] | TGI [7] | TGI [8] | TGI [9] | TGI [10] | TGI [11] | TGI [12] | TGI [13] | TGI [14] | TGI [15] | GI50 [2] | GI50 [15]
1 | COc1ccc(C2=Nn3c(nnc(Cc4ccc(Cl)cc4)c3=O)SC2)cc1 | > 100 µM | > 100 µM | > 100 µM | > 100 µM | > 100 µM | > 100 µM | > 100 µM | > 100 µM | > 100 µM | > 100 µM | > 100 µM | > 100 µM | > 100 µM | > 100 µM | > 100 µM |  | 
2 | Cc1ccc(NC(=O)c2cccc(OP(=O)(O)Nc3ccc(C)cc3)c2)cc1 | > 100 µM | > 100 µM | > 100 µM | > 100 µM | > 100 µM | > 100 µM | > 100 µM | > 100 µM | > 100 µM | > 100 µM | > 100 µM | > 100 µM | > 100 µM | > 100 µM | > 100 µM |  | 
3 | CCNc1cc2c(cc1O)CC[C@@H]1[C@@H]2CC[C@]2(C)[C@@H](O)CC[C@@H]12 | 54.6 µM | 18.7 µM | 21.6 µM | 15 µM | 46.7 µM | 24.1 µM | 7.33 µM | 19 µM | 29.1 µM | 63.5 µM | > 41.4 µM | 34.7 µM | 20.6 µM | 25.3 µM | 15.5 µM | 3.1 µM | 0.741 µM
4 | NC(N)=N/N=C/c1c(-c2cccc([N+](=O)[O-])c2)nc2n1CCS2 | 41 µM | > 100 µM | 39 µM | > 100 µM | 29.8 µM | 39.3 µM | 48 µM | 37.7 µM | 58.5 µM | > 100 µM | > 100 µM | > 100 µM | 36 µM | > 100 µM | 43.7 µM |  | 
5 | CCN(CC)CC(=O)O[C@]1(CC)C(=O)OCc2c1cc1n(c2=O)Cc2cc3ccccc3nc2-1 | 2.37 µM | 0.352 µM | 0.23 µM | 3.93 µM | 0.0749 µM | 3.65 µM | 1.28 µM | 4.33 µM | 1.8 µM | 1.85 µM | 38.3 µM | 1.43 µM | 0.564 µM | 0.13 µM | 0.17 µM |  | 
6 | CC(=NNC(=S)Nc1ccc(C)cc1)c1cccc(C(C)=NNC(=S)Nc2ccc(C)cc2)n1 | > 100 µM | 45.3 µM | 73.6 µM | > 100 µM | 22.9 µM | 34.5 µM | > 100 µM | 59.8 µM | > 100 µM | 85.8 µM | 66.3 µM | > 100 µM | 72 µM | > 100 µM | 28.1 µM |  | 
7 | Cc1ccc(NC(=S)N/N=C(/c2ccccc2)c2ccccn2)cc1 | 15.7 µM | 14 µM | 2.07 µM | 15.6 µM | > 12.3 µM | 14 µM | 21 µM | 20.9 µM | 10.1 µM | > 58.4 µM | 4.61 µM | 2.07 µM | 12.7 µM | 13.7 µM | 10.3 µM |  | 
8 | COC1(OC)CC(CO)(CNc2nc(N)nc(Cl)c2/C=N\O)C1 | > 100 µM | > 100 µM | > 100 µM | > 100 µM | 85.4 µM | > 100 µM | > 100 µM | > 100 µM | > 100 µM | > 100 µM | > 100 µM | > 100 µM | > 100 µM | > 100 µM | > 100 µM |  | 
9 | CN(/N=C/c1ccc(OCc2cccc(COc3ccc(C=O)cc3)n2)cc1)c1cnn(-c2ccc(Cl)cc2Cl)c(=O)c1Cl | > 100 µM | > 100 µM | > 100 µM | > 100 µM | > 100 µM | > 100 µM | > 100 µM | > 100 µM | > 100 µM | > 100 µM | > 100 µM | > 100 µM | 73.2 µM | > 100 µM | 46.9 µM |  | 
10 | C/C(=C1/CCC/C(=C(/C)c2ccccc2)C1=O)c1ccccc1 | > 100 µM | 55.5 µM | 56.5 µM | > 100 µM | 64.3 µM | > 100 µM | > 100 µM | > 100 µM | > 100 µM | > 100 µM | 47.1 µM | > 100 µM | 47.6 µM | > 100 µM | > 100 µM |  | 
11 | O=[N+]([O-])c1cccc2nc3ccccc3c(NCCC[N+]3([O-])CCOCC3)c12 | 0.871 µM | 0.533 µM | 0.529 µM | 6.42 µM | > 100 µM | 3.44 µM | 0.0393 µM | 1.6 µM | 0.993 µM | 4.69 µM | > 100 µM | 1.5 µM | 0.366 µM | 0.729 µM | 1.3 µM |  | 
